Measurements taken from patent US20230391726A1, “DIHYDROQUINAZOLINONES AND RELATED ANALOGS FOR INHIBITING YAP/TAZ-TEAD” (THE KATHOLIEKE UNIVERSITEIT LEUVEN, priority 2022, published 2023).

Legend:
Type in all cases: cell-based
[1] = system: YAP/TAZ-TEAD transcription; assay: Reporter gene assay for measuring the inhibition of YAP/TAZ-TEAD transcription (TEAD-responsive element luciferase reporter in Hek293T cells); conditions: Homo sapiens, HEK-293T; Hek293T cells transfected with TEAD-responsive element luciferase reporter, 24 hours incubation
Protocol: Hek293T cells are cultured in DMEM supplemented with 10% fetal bovine serum, Sodium pyruvate, Sodium bicarbonate, L-glutamine. The cells are harvested and transiently transfected with TEAD-responsive element luciferase reporter. Transfected cells are plated in 384-wells plate containing pre-diluted compounds. After 24 hours incubation at 37° C./5% CO2, assay plates were cooled down to RT and levelled to an equal volume per well, prior to the addition of 25 uL luciferase substrate SteadyLite (Perkin Elmer)/well. The plate was shaken for 10 min at 600 rpm, centrifuged for 1 min at 500 rpm and measured with an Envision reader (PerkinElmer). The amount of relative light units produced by the TEAD reporter is used to calculated percent of inhibition.
The percent of reporter inhibition was calculated in the presence of a positive control inhibitor (100% inhibition) versus a condition with the presence of the vehicle basal activity of the reporter (0% inhibition). The ability of a test compound to inhibit this activity was determined as:
Percentage inhibition=[1-((RLU determined in the presence of vehicle−RLU determined for sample with test compound present) divided by (RLU determined in the presence of vehicle−RLU determined for sample with positive control inhibitor))]*100
The activities of example compounds tested are depicted in Table 3. The activity ranges A, B and C refer to IC50 values in the reporter gene assay as follows: “A”: IC50<1 μM; “B”: 1 μM≤IC50≤20 μM and “C”: IC50>20 μM; NT=not tested.

NCl-H226 = assay: Mesothelioma cell line proliferation assay (ATPlite), NCl-H226; conditions: Homo sapiens, NCI-H226, 144 h, NCl-H226 mesothelioma cells, 6 days incubation
Protocol: (§1) Mesothelioma cell lines, NCl-H226 and NCl-H2052 (all sourced from the ATCC cell culture collection) are plated in 96-well plates (Corning® 96 Well White Polystyrene Microplate clear flat bottom, white polystyrene (TC-Treated)), at 1500 cells/well in full medium (RPMI 1640 ATCC modification with L-glutamine, HEPES, Phenol Red, Sodium Pyruvate, High glucose, Low sodium bicarbonate and 10% fetal bovine serum). Cells are incubated overnight at 37° C. in an incubator with 5% CO2. Then compounds, dissolved in DMSO, are added in dose-response. Cells are incubated with compound dilutions for another 6 days at 37° C. in an incubator with 5% CO2. Cell viability is quantitated using the ATPlite kit (Perkin-Elmer) and the luminescence is read-out using an Envision instrument (Perkin-Elmer). The amount of relative light units produced using the ATPlite kit is used to calculated percent of inhibition.
(§2) The activities of some example compounds are depicted in Table 4. The activity ranges A, B and C refer to EC50 values in the mesothelioma cell line proliferation assay as described as follows: “A”: EC50<1 μM; “B”: 1 μM≤EC50≤10 μM and “C”: EC50>10 μM; NT: not tested.

NCl-H2052 = assay: Mesothelioma cell line proliferation assay (ATPlite), NCl-H2052; conditions: Homo sapiens, NCI-H2052, 144 h, NCl-H2052 mesothelioma cells, 6 days incubation
Protocol: as §1, §2

Row | SMILES | EC50 [1] [µM] | EC50 (NCl-H226) [µM] | EC50 (NCl-H2052) [µM]
1 | O=C1NCN(c2ccc(C(F)(F)F)cc2)c2ccccc21 [Cpd. No. 1, 1-(4-(trifluoromethyl)phenyl)-2,3-dihydroquinazolin-4(1H)-one] | 1 to 20 | > 10 | > 10
2 | O=C1c2ccccc2N(c2ccc(C(F)(F)F)cc2)CN1CCCO [Cpd. No. 2, 3-(3-hydroxypropyl)-1-(4-(trifluoromethyl)phenyl)-2,3-dihydroquinazolin-4(1H)-one] | 1 to 20 |  | 
3 | CNC(=O)CN1CN(c2ccc(C(F)(F)F)cc2)c2ccccc2C1=O [Cpd. No. 6, N-methyl-2-(4-oxo-1-(4-(trifluoromethyl)phenyl)-1,4-dihydroquinazolin-3(2H)-yl)acetamide] | > 20 |  | 

More lines, now with the values ahead:

Row | EC50 [1] [µM] | EC50 (NCl-H226) [µM] | EC50 (NCl-H2052) [µM] | SMILES
4 | 1 to 20 |  |  | C=CC(=O)NC1CN(c2ccccc2)c2ccccc2C1=O (stereo not drawn) [Cpd. No. 7, N-(4-oxo-1-phenyl-1,2,3,4-tetrahydroquinolin-3-yl)acrylamide]
5 | > 20 |  |  | NC(=O)CN1CN(c2ccc(C(F)(F)F)cc2)c2ccccc2C1=O [Cpd. No. 5, 2-(4-oxo-1-(4-(trifluoromethyl)phenyl)-1,4-dihydroquinazolin-3(2H)-yl)acetamide]
6 | 1 to 20 |  |  | O=C1c2ccccc2N(c2ccc(C(F)(F)F)cc2)CN1CCO [Cpd. No. 4, 3-(2-hydroxyethyl)-1-(4-(trifluoromethyl)phenyl)-2,3-dihydroquinazolin-4(1H)-one]
7 | 1 to 20 |  |  | O=C(O)CN1CN(c2ccc(C(F)(F)F)cc2)c2ccccc2C1=O [Cpd. No. 3, 2-(4-oxo-1-(4-(trifluoromethyl)phenyl)-1,4-dihydroquinazolin-3(2H)-yl)acetic acid]
